Measurements taken from ChEMBL document CHEMBL5149985, “Discovery of cytotoxic natural products from Red Sea sponges: Structure and synthesis” (Eur J Med Chem, 2021).
pIC50: −log10 of the molar value.

Assays:
MDA-MB-231 [1] = experiment: Anticancer activity against human MDA-MB-231 assessed as inhibition of cell growth incubated for 48 hrs by SRB assay; type: functional, cell-based; conditions: MDA-MB-231, 48 h
MDA-MB-231 [2] = experiment: Anticancer activity against human MDA-MB-231 cells assessed as inhibition of cell growth; type: functional, cell-based

pIC50 (MDA-MB-231 [1]): 4.74
pIC50 (MDA-MB-231 [2]): 4.74
SMILES: COC1=C(Br)[C@@H]2OC(=O)C[C@]2(O)C=C1Br
